From the supplement of paper PMC10307832 come the findings set out here.

What all share (assay): relative viability (nuclei count vs DMSO), 5 days (fraction); higher = more cells survive
Compound in assay [1]: CC1CC(=O)N(C2=CN=C(N=C2N1C3CCCC3)NC4=C(C=C(C=C4)C(=O)NC5CCN(CC5)C)OC)C [NPK76-II-72-1] + CC1(C)CCC(c2ccc(Cl)cc2)=C(CN2CCN(c3ccc(C(=O)NS(=O)(=O)c4ccc(N[C@H](CCN5CCOCC5)CSc5ccccc5)c(S(=O)(=O)C(F)(F)F)c4)cc3)CC2)C1 [Navitoclax] (partner 0.5 µM)
The method, boiled down: (§1)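 Medians of duplicate plates are given as relative viability. That measure is the nuclei count in treated wells divided by the count in vehicle wells. Counts were taken on 4× images of lung cancer cell lines in 1536-well plates, 5 days after pin-tool dosing the day after seeding with one drug alone or a fixed anchor-drug dose plus five library-drug doses (not always all listed) in √10 steps.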

Compound in the assay “NPK76-II-72-1 + OSI-027”: CC1CC(=O)N(C2=CN=C(N=C2N1C3CCCC3)NC4=C(C=C(C=C4)C(=O)NC5CCN(CC5)C)OC)C [NPK76-II-72-1] + COc1cccc2cc(-c3nc([C@H]4CC[C@H](C(=O)O)CC4)n4ncnc(N)c34)[nH]c12 [OSI-027] (partner 0.5 µM)
The method, boiled down: as §1

Compound in the assay “BI-2536 + Linsitinib”: CC[C@@H]1C(=O)N(C)c2cnc(Nc3ccc(C(=O)NC4CCN(C)CC4)cc3OC)nc2N1C1CCCC1 [BI-2536] + C[C@]1(O)C[C@@H](c2nc(-c3ccc4ccc(-c5ccccc5)nc4c3)c3c(N)nccn32)C1 [Linsitinib] (partner 1 µM)
The essentials: as §1

Compound in the assay “BI-2536 + Tozasertib”: CC[C@@H]1C(=O)N(C)c2cnc(Nc3ccc(C(=O)NC4CCN(C)CC4)cc3OC)nc2N1C1CCCC1 [BI-2536] + Cc1cc(Nc2cc(N3CCN(C)CC3)nc(Sc3ccc(NC(=O)C4CC4)cc3)n2)n[nH]1 [Tozasertib] (partner 0.1 µM)
The essentials:
as §1

On to UMC-11, for which the relative viability in assay [1] (first compound 0.01 µM) is 0.313; in assay [1] (first compound 0.03162 µM), 0.276; in assay [1] (first compound 0.1 µM), 0.302; in assay [1] (first compound 0.3162 µM), 0.305; in assay [1] (first compound 1 µM), 0.357; in the assay with NPK76-II-72-1 + OSI-027 (first compound 0.01 µM) it was 0.435. Besides, the relative viability is 0.424 with NPK76-II-72-1 + OSI-027 (first compound 0.03162 µM); 0.521 with NPK76-II-72-1 + OSI-027 (first compound 0.1 µM); 0.47 in the assay with NPK76-II-72-1 + OSI-027 (first compound 1 µM); 1.02 in the assay with BI-2536 + Linsitinib (first compound 0.01 µM); 0.967 in the assay with BI-2536 + Linsitinib (first compound 0.03162 µM); 0.841 with BI-2536 + Linsitinib (first compound 0.1 µM). In addition, the relative viability stood at 0.207 with BI-2536 + Linsitinib (first compound 0.3162 µM); 0.172 in the assay with BI-2536 + Linsitinib (first compound 1 µM); 0.184 with BI-2536 + Tozasertib (first compound 0.01 µM); 0.203 in the assay with BI-2536 + Tozasertib (first compound 0.03162 µM); 0.198 with BI-2536 + Tozasertib (first compound 0.1 µM); 0.31 with BI-2536 + Tozasertib (first compound 0.3162 µM). Also, the relative viability in the assay with BI-2536 + Tozasertib (first compound 1 µM) is 0.361.
